Reference: PubChem BioAssay (NCI)
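Compound exposure: 48 hours, 5 concentrations, 96-well plates. GI50 = concentration required for 50% inhibition of growth. At the TGI there is no net growth.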

Columns and labels:
Assay in all cases: NCI tumour cell line growth inhibition, 48 h
[1] = tested on: SNB-75 CNS
[2] = tested on: 786-0 renal
[3] = tested on: SK-MEL-2 melanoma
[4] = tested on: MOLT-4 leukemia
[5] = tested on: OVCAR-8 ovarian
[6] = tested on: SK-OV-3 ovarian
[7] = tested on: HCT-15 colon
[8] = tested on: HCT-116 colon
[9] = tested on: SF-268 CNS
[10] = tested on: MDA-MB-435

Compound	TGI [1] [µM]	TGI [2] [µM]	TGI [3] [µM]	TGI [4] [µM]	TGI [5] [µM]	TGI [6] [µM]	TGI [7] [µM]	TGI [8] [µM]	TGI [9] [µM]	TGI [10] [µM]	GI50 [1] [µM]	GI50 [2] [µM]	GI50 [3] [µM]	GI50 [4] [µM]	GI50 [5] [µM]	GI50 [6] [µM]	GI50 [7] [µM]	GI50 [8] [µM]	GI50 [9] [µM]	GI50 [10] [µM]
COc1ccc(/C=C2/C[N+](C)(C)C/C(=C/c3ccc(OC)cc3)C2=O)cc1	> 100	> 100	71.7	57.1	> 100	> 100	> 100	> 100	> 94.4	–	–	–	–	–	–	–	–	–	–	–
COC(=O)C(Nc1ccc(OC)cc1)c1ccccc1 (stereo unspecified)	–	> 100	> 100	> 100	> 100	–	> 100	> 100	> 100	> 100	–	–	–	–	–	–	–	–	–	–
Cc1cc(C)nc(Nc2nc3ccc([N+](=O)[O-])cc3[nH]2)n1	–	> 100	> 100	> 100	> 100	–	> 100	> 100	> 100	–	–	–	–	–	–	–	–	–	–	–
COc1ccc2ccc([Se]c3ccc4ccc(OC)cc4c3)cc2c1	76.8	> 100	> 100	> 100	98.2	> 100	> 100	> 100	> 100	–	–	–	–	–	–	–	–	–	–	–
O=S1(=O)C[C@@H](O)[C@H](O)CS1	> 100	> 100	–	> 100	> 100	> 100	–	> 100	> 100	–	–	–	–	–	–	–	–	–	–	–
CC(=O)OCC1OC(n2c(=O)n(-c3ccccc3)c(=O)c3ccccc32)C(OC(C)=O)C(OC(C)=O)C1OC(C)=O (stereo unspecified)	> 100	> 100	> 100	> 100	> 100	> 100	> 100	> 100	> 100	–	–	–	–	–	–	–	–	–	–	–
CCOC(=O)CC1=CSC2=NCCN12	> 100	> 100	> 100	–	> 100	> 100	> 100	> 100	> 100	–	–	–	–	–	–	–	–	–	–	–
O=C(O)C12C3CCCC1C2CC3 (stereo unspecified)	> 100	> 100	> 100	> 100	> 100	> 100	> 100	> 100	> 100	–	–	–	–	–	–	–	–	–	–	–
CCOC(=O)C(=O)Nc1c(N(CC)CC)n2ccccc2nc1=O	> 100	> 100	> 100	> 100	> 100	> 100	> 100	> 100	> 100	–	–	–	–	–	–	–	–	–	–	–
CN(c1ccccc1)C(c1ccccc1)C(O)c1ccccc1 (stereo unspecified)	64.4	33.8	31.8	42.1	36	52.1	40.3	33.7	42.1	–	–	–	–	–	–	–	–	–	–	–
c1ccc(N=C2c3ccccc3C3=NCCCN32)cc1	> 100	> 100	> 100	> 100	> 100	–	> 100	> 100	> 100	–	–	–	–	–	–	–	–	–	–	–
O=C1C(=O)N(c2ccc(Cl)c(Cl)c2)C(=O)C(=O)C1c1nc2ccccc2o1	> 100	> 100	> 100	> 100	> 100	> 100	> 100	> 100	> 100	–	–	–	–	–	–	–	–	–	–	–
CC(=O)/C=C/c1ccc(C2CC(C)=Nc3c(ccc4c3C(=O)c3ccccc3C4=O)N2)cc1 (stereo unspecified)	> 100	> 100	> 100	> 100	> 100	> 100	> 100	> 100	> 100	–	–	–	–	–	–	–	–	–	–	–
CCOC(=O)c1ccc(N2C(=O)/C(=C\OC)c3ccccc3C2=O)cc1	> 100	> 100	> 100	89.3	> 100	41.9	> 100	> 100	> 100	–	–	–	–	–	–	–	–	–	–	–
ON=C1CCC(c2ccccc2)CC1 (stereo unspecified)	> 100	> 100	> 100	–	> 100	> 100	> 100	> 100	> 100	–	–	–	–	–	–	–	–	–	–	–
CC(C(=O)Oc1ccc2ccccc2c1-c1c(O)ccc2ccccc12)c1ccccc1 (stereo unspecified)	–	29.3	29.7	44.8	50.2	29.6	27.2	25.6	–	–	–	–	–	–	–	–	–	–	–	–
O=C([CH-]C(=O)c1ccccc1)c1ccccc1.O=C([CH-]C(=O)c1ccccc1)c1ccccc1.[Nd+3].[OH-].[OH3+]	7.25	33.7	27	33.1	38.4	48.2	34.1	19	34.9	–	2.49	7.79	9.48	3.88	4.74	14.5	8.5	5.26	6.51	–
CC(=O)Nc1ccc(C2[C@H]3C(=O)N(c4ccc(Cc5ccc(N6C(=O)[C@@H]7ON(c8ccccc8)C(c8ccc(NC(C)=O)cc8)[C@@H]7C6=O)cc5)cc4)C(=O)[C@H]3ON2c2ccccc2)cc1 (stereo partly specified)	> 100	> 100	> 100	> 100	> 100	> 100	> 100	> 100	> 100	–	–	–	–	–	–	–	–	–	–	–

Compound	TGI [1] [µM]	TGI [2] [µM]	TGI [3] [µM]	TGI [4] [µM]	TGI [5] [µM]	TGI [6] [µM]	TGI [7] [µM]	TGI [8] [µM]	TGI [9] [µM]	TGI [10] [µM]	GI50 [1] [µM]	GI50 [2] [µM]	GI50 [3] [µM]	GI50 [4] [µM]	GI50 [5] [µM]	GI50 [6] [µM]	GI50 [7] [µM]	GI50 [8] [µM]	GI50 [9] [µM]	GI50 [10] [µM]
CCOC(=O)C1C(=O)c2ccccc2CN1Cc1ccccc1 (stereo unspecified)	> 100	> 100	> 100	> 100	> 100	> 100	> 100	> 100	> 100	–	–	–	–	–	–	–	–	–	–	–
COC(=O)Nc1nc2ccccc2c(=O)[nH]1	> 100	> 100	> 100	> 100	> 100	> 100	> 100	> 100	> 100	–	–	–	–	–	–	–	–	–	–	–
O=c1cc2ccccc2nn1-c1ccccc1Cl	> 100	> 100	> 100	–	> 100	> 100	> 100	> 100	> 100	–	–	–	–	–	–	–	–	–	–	–
O=C(O)c1cc2c(cn1)[nH]c1ccccc12	> 100	> 100	–	> 100	> 100	> 100	> 100	> 100	> 100	–	–	–	–	–	–	–	–	–	–	–
Nc1ccccc1C#C/C=C\C#Cc1ccc(Cl)cc1Cl	–	27.4	70.1	> 100	41.5	80.5	–	24.9	23.7	5.8	–	13.5	25	1.62	19.1	27.8	–	12	4.38	2.41
COC(=O)C1=C(O)C(O)=C(C(=O)OC)C1	> 100	> 100	> 100	> 100	> 100	> 100	> 100	> 100	> 100	–	–	–	–	–	–	–	–	–	–	–
Cc1c2cc[nH]c(=O)c2cc2c(=O)c3cnccc3[nH]c12	> 100	> 100	> 100	> 100	> 100	> 100	> 100	> 100	> 100	–	–	–	–	–	–	–	–	–	–	–
O=C(c1ccccc1)c1c(C(=O)c2ccccc2)c(-c2ccccc2)c2c(-c3ccccc3)sc(-c3ccccc3)c2c1-c1ccccc1	> 100	> 100	–	–	> 100	> 100	> 100	> 100	> 100	–	–	–	–	–	–	–	–	–	–	–
CC1NOC(=O)C1N=Nc1ccccc1Cl (stereo unspecified)	62.4	> 100	> 100	–	> 100	94.4	–	> 100	> 100	–	–	–	–	–	–	–	–	–	–	–
O=C1OC2(c3ccccc3Oc3ccccc32)c2ccccc21	> 100	> 100	> 100	> 100	> 100	> 100	> 100	> 100	> 100	–	–	–	–	–	–	–	–	–	–	–
CCOC(=O)C(C)c1cc(C2(C)OCCO2)c(C)o1 (stereo unspecified)	> 100	> 100	> 100	> 100	> 100	> 100	> 100	> 100	> 100	–	–	–	–	–	–	–	–	–	–	–
COC(=O)c1ccc(N=NN(C)CO)cc1	> 100	> 100	> 100	> 100	> 100	> 100	> 100	> 100	–	–	–	–	–	–	–	–	–	–	–	–
N.N.NC(CS)C(=O)[O-].NC(CS)C(=O)[O-].[Pt+4] (stereo unspecified)	> 50	> 50	> 50	> 50	> 50	> 50	> 50	> 50	> 50	–	> 50	> 50	> 50	> 50	> 50	> 50	> 50	> 50	> 50	–
COC(=O)c1nc(NC#N)[nH]c(=O)c1C	> 95.4	> 100	> 100	> 100	> 100	> 100	> 100	> 100	> 100	–	–	–	–	–	–	–	–	–	–	–
CS(=O)c1ccc(COP(N)(=O)N(CCCl)CCCl)cc1 (stereo unspecified)	> 100	> 100	> 100	> 100	> 100	> 100	–	> 100	> 100	–	–	–	–	–	–	–	–	–	–	–
CN(C)c1ccc2c3c(c(=O)oc2c1)CCC3	–	> 100	> 100	> 100	> 100	–	> 100	> 100	> 100	> 100	–	–	–	–	–	–	–	–	–	–
Nc1c(-c2nc3ccccc3[nH]2)sc(=S)n1-c1ccccc1	> 100	> 100	> 100	45.8	> 100	> 100	> 100	> 100	> 100	–	–	–	–	–	–	–	–	–	–	–
